For 50 molecules, EC50 results are on record in patent publication US20210139477A1, “ALK5 INHIBITORS, CONJUGATES, AND USES THEREOF” (Silverback Therapeutics, Inc., priority 2019, published 2021).

The term EC50 denotes the concentration at which the effect is half-maximal. Read a low EC50 as greater potency.

For this assay, the system named is TGFb/SMAD Signaling Pathway SBE reporter cell line. As to the kind of experiment: TGFb reporter assay (TGFb/SMAD Signaling Pathway SBE luciferase reporter cell line). The class given is cell-based. Conditions: 5-6 h preincubation, then TGFb, 18 h, luciferase luminescence. As to the method:
TGFβ/SMAD Signaling Pathway SBE reporter cell line was obtained from BPS Bioscience. Cells were passed, expanded, and stored in liquid nitrogen as per the supplier's instructions with the exception that growth media is changed to DMEM-C with Geneticin (DMEM supplemented with 10% fetal bovine serum, 1×NEAA, 1 mM Pyruvate, 2 mM glutamine, 50 μg/mL penicillin, 50 U/mL streptomycin and 400 μg/mL of Geneticin). The assay media was MEM supplemented with 0.5% fetal bovine serum, 1×NEAA, 1 mM Pyruvate, 50 μg/mL penicillin and 50 U/mL streptomycin.
TGFb/SMAD Signaling Pathway SBE reporter cell line was obtained from BPS Bioscience. Cells were passed/expanded/stored in liquid nitrogen per supplier's instruction with the exception that growth media was changed to DMEM-C with Geneticin (DMEM supplemented with 10% fetal bovine serum, IX NEAA, 1 mM Pyruvate, 2 mM glutamine, 50 μg/mL penicillin, 50 U/mL streptomycin and 400 ug/mL of Geneticin). The assay media was MEM supplemented with 0.5% fetal bovine serum, IX NEAA, 1 mM Pyruvate, 50 μg/mL penicillin and 50 U/mL streptomycin.
Reporter cells were harvested from the tissue culture flasks by incubation in small quantity of Versene at room temperature for three to five minutes after the media in the flask was removed and cells rinsed with PBS. Cells were counted and diluted in the assay media at 0.8×10^6 cells/mL then 50 uL/well were added to 96-well assay plate. Test samples (at desired concentrations diluted in assay media) were added to assay plate containing the 50 uL/well of cells (or media only), 50 uL per well, and incubated for 5-6 hours at 37° C. in a 5% CO2 humidified incubator. After that time, 15 uL of TGFb diluted to 12.5 ng/mL in the assay media was added to the plate. Controls included TGFb titration (from 25 to 0 ng/mL) without inhibitors, and media only (without cells, inhibitor or TGFb). Plates were incubated at 37° C. in a […] humidified incubator for 18 h. Luciferase substrate solution was subsequently added at 75 uL per well, incubated in dark with shaking at room temperature for 10 min, and luminescence was measured using a luminometer.
For orientation: A reporter such as luciferase makes a cellular process visible.

In the case of `Cc1cccc(-c2nc(CNCc3ccccc3Oc3cccnc3)[nH]c2-c2ccc3ncnn3c2)n1` [Compound 54], the EC50 is 0.1 to 10 nM.
In turn, `Cc1cccc(-c2nc(CNCc3ccccc3N(C)C)[nH]c2-c2ccc3ncnn3c2)n1` [Compound 25] gave an EC50 of 0.1 to 10 nM.
As for `Cc1cccc(-c2nc(CNCc3ccccc3-c3ccc(CN)cc3)[nH]c2-c2ccc3ncnn3c2)n1` [Compound 34], the figure is 100 to 1000 nM; as for `Cc1cccc(-c2nc(CNCc3ccccc3)[nH]c2-c2ccc3ncnn3c2)n1` [Compound 1, 1-(5-([1,2,4]triazolo[1,5-a]pyridin-6-yl)-4-(6-methylpyridin-2-yl)-1H-imidazol-2-yl)-N-benzylmethanamine], 0.1 to 10 nM.
In the case of `Cc1cccc(-c2nc(CNCc3ccccc3-c3ccccn3)[nH]c2-c2ccc3ncnn3c2)n1` [Compound 40] it was 10 to 100 nM; in that of `Cc1cccc(CNCc2nc(-c3cccc(C)n3)c(-c3ccc4ncnn4c3)[nH]2)c1` [Compound 50], 10 to 100 nM.
Turning to `Cc1cccc(-c2nc(CNCc3ccccc3)[nH]c2-c2ccnc3ccccc23)n1` [Compound 74], the EC50 was in the range of 100 to 1000 nM.
As for `Cc1cccc(-c2nc(CNCCc3ccccc3)[nH]c2-c2ccc3ncnn3c2)n1` [Compound 52], the figure is 0.1 to 10 nM; as for `COc1ccc(CNCc2nc(-c3cccc(C)n3)c(-c3ccc4ncnn4c3)[nH]2)cc1` [Compound 8], 100 to 1000 nM.
`Cc1cccc(-c2nc(CNCc3ccccc3-c3cccnc3)[nH]c2-c2ccc3ncnn3c2)n1` [Compound 41] yielded an EC50 of 0.1 to 10 nM.
`Cc1cccc(-c2nc(CNCc3ccccc3-c3ccccc3F)[nH]c2-c2ccc3ncnn3c2)n1` [Compound 38] displayed an EC50 of 0.1 to 10 nM.
As for `Cc1cccc(-c2nc(CNCc3ccccc3-c3ccccc3)[nH]c2-c2ccc3ncccc3c2)n1` [Compound 91], the figure is 10 to 100 nM; as for `Cc1cccc(-c2nc(CNCc3ccccc3)[nH]c2-c2ccc3ncccc3c2)n1` [Compound 90], 0.1 to 10 nM.
As for `Cc1cccc(-c2nc(CNCc3ccccc3)[nH]c2-c2ccc3nccnc3c2)n1` [Compound 77], the figure is 0.1 to 10 nM.
As for `Cc1cccc(-c2nc(CNCc3cccc(Cl)c3)[nH]c2-c2ccc3ncnn3c2)n1` [Compound 2], the figure is 10 to 100 nM; as for `Cc1cccc(-c2nc(CNCCc3c(F)cccc3F)[nH]c2-c2ccncc2)n1` [Compound 80], 100 to 1000 nM; as for `Cc1cccc(-c2nc(CNCCN(C)c3ccccc3)[nH]c2-c2ccc3ncccc3n2)n1` [Compound 85], 0.1 to 10 nM.
As to `Cc1cccc(-c2nc(CNCc3ccc(Cl)cc3)[nH]c2-c2ccc3ncnn3c2)n1` [Compound 3], the EC50 was 10 to 100 nM.
In the case of `Cc1cccc(-c2nc(CNCc3cc(Cl)ccc3Cl)[nH]c2-c2ccc3ncnn3c2)n1` [Compound 5] it was 10 to 100 nM; in that of `Cc1cccc(-c2nc(CNCCc3cccc(F)c3)[nH]c2-c2ccc3ncnn3c2)n1` [Compound 61], 0.1 to 10 nM; in that of `Cc1cccc(-c2nc(CNCc3ccccc3-c3ccccc3)[nH]c2-c2ccc3ncnn3c2)n1` [Compound 24], 0.1 to 10 nM.
As for `Cc1cccc(-c2nc(CNCc3cccc(-c4ccccc4)c3)[nH]c2-c2ccc3ncnn3c2)n1` [Compound 51], the figure is 100 to 1000 nM.
In the case of `COc1ccccc1CCNCc1nc(-c2cccc(C)n2)c(-c2ccc3nccnc3c2)[nH]1` [Compound 87] it was 0.1 to 10 nM; in that of `Cc1cccc(-c2nc(CNCCOc3ccccc3)[nH]c2-c2ccc3ncnn3c2)n1` [Compound 65], 0.1 to 10 nM; in that of `Cc1cccc(-c2nc(CNCc3ccccc3-c3cc(F)cc(F)c3)[nH]c2-c2ccc3ncnn3c2)n1` [Compound 39], 10 to 100 nM.
`Cc1cccc(-c2nc(CNCc3ccccc3-c3ccccc3)[nH]c2-c2ccc3c(c2)OCO3)n1` [Compound 71] gave a half-maximal effective concentration (EC50) of 100 to 1000 nM.
As for `Cc1cccc(-c2nc(CNCc3ccccc3-c3ccc(F)c(F)c3)[nH]c2-c2ccc3ncnn3c2)n1` [Compound 36], the figure is 10 to 100 nM; as for `Cc1cccc(-c2nc(CNCc3cccc(C)c3C)[nH]c2-c2ccc3ncnn3c2)n1` [Compound 45], 0.1 to 10 nM.
As for `COc1cccc(CNCc2nc(-c3cccc(C)n3)c(-c3ccc4ncnn4c3)[nH]2)c1C` [Compound 46], the figure is 0.1 to 10 nM; as for `Cc1cccc(-c2nc(CNCCc3ccc(F)cc3F)[nH]c2-c2ccc3ncnn3c2)n1` [Compound 63], 0.1 to 10 nM; as for `Cc1cccc(-c2nc(CNCc3ccccc3-c3cccc(CNC(=O)OC(C)(C)C)c3)[nH]c2-c2ccc3ncnn3c2)n1` [Compound 30], 100 to 1000 nM.
Molecule `Cc1cccc(-c2nc(CNCc3cccc(Oc4ccccc4)c3)[nH]c2-c2ccc3ncnn3c2)n1` [Compound 56] gave an EC50 of 10 to 100 nM.
`Cc1cccc(-c2nc(CNCc3ccccc3Oc3ccncc3)[nH]c2-c2ccc3ncnn3c2)n1` [Compound 55] had an EC50 of 1000 to 10000 nM.
As for `Cc1cccc(-c2nc(CNCCNc3ccccc3)[nH]c2-c2ccc3ncnn3c2)n1` [Compound 66], the figure is 0.1 to 10 nM; as for `COc1ccccc1CNCc1nc(-c2cccc(C)n2)c(-c2ccc3ncnn3c2)[nH]1` [Compound 17], 10 to 100 nM.
As for `Cc1cccc(-c2nc(CNCc3ccccc3C)[nH]c2-c2ccc3ncccc3n2)n1` [Compound 83], the figure is 0.1 to 10 nM.
In the case of `COc1cccc(CNCc2nc(-c3cccc(C)n3)c(-c3ccc4ncnn4c3)[nH]2)c1` [Compound 7] it was 0.1 to 10 nM; in that of `Cc1cccc(-c2nc(CNCc3cccc(Oc4cccnc4)c3)[nH]c2-c2ccc3ncnn3c2)n1` [Compound 57], 10 to 100 nM.
As to `Cc1cccc(-c2nc(CNCc3ccccc3-c3ccccc3)[nH]c2-c2ccc3ncccc3n2)n1` [Compound 68], the EC50 fell in the range of 10 to 100 nM.
As for `Cc1cccc(-c2nc(CNCCc3c(F)cccc3F)[nH]c2-c2ccc3ncccc3n2)n1` [Compound 78], the figure is 0.1 to 10 nM; as for `Cc1cccc(-c2nc(CNCc3cccc(Cl)c3C)[nH]c2-c2ccc3ncnn3c2)n1` [Compound 47], 0.1 to 10 nM.
With `Cc1cccc(-c2nc(CNCc3ccccc3C3CCCC3)[nH]c2-c2ccc3ncnn3c2)n1` [Compound 44], the EC50 fell in the range of 10 to 100 nM.
In the case of `Cc1cccc(-c2nc(CNCc3ccccc3OC(F)(F)F)[nH]c2-c2ccc3ncnn3c2)n1` [Compound 26] it was 0.1 to 10 nM; in that of `Cc1cccc(-c2nc(CNCc3ccccc3C(C)C)[nH]c2-c2ccc3ncnn3c2)n1` [Compound 23], 0.1 to 10 nM.
In the case of `Cc1cccc(-c2nc(CNCc3ccccc3CC(F)(F)F)[nH]c2-c2ccc3ncnn3c2)n1` [Compound 27] it was 0.1 to 10 nM.
In the case of `Cc1cccc(-c2nc(CNCc3ccccc3-c3ccc(CNC(=O)OC(C)(C)C)cc3)[nH]c2-c2ccc3ncnn3c2)n1` [Compound 31] it was 100 to 1000 nM; in that of `Cc1cccc(-c2nc(CN[C@@H](CO)c3ccccc3)[nH]c2-c2ccc3ncnn3c2)n1` [Compound 14], 10 to 100 nM.
In the case of `Cc1cccc(-c2nc(CNCc3ccccc3C#N)[nH]c2-c2ccc3ncnn3c2)n1` [Compound 20], the EC50 lay within 100 to 1000 nM.
In the case of `Cc1cccc(-c2nc(CN[C@H](C)c3ccccc3)[nH]c2-c2ccc3ncnn3c2)n1` [Compound 11] it was 10 to 100 nM; in that of `Cc1cccc(-c2nc(CNC(c3ccccc3)c3ccccc3)[nH]c2-c2ccc3ncnn3c2)n1` [Compound 13], 0.1 to 10 nM.
